Legend:
TNK1 = target: T1, TNK1 (Homo sapiens, UniProt Q13470); assay: Kinase panel, CaNDY 1 µM; assay type: biochemical; details: CaNDY 1 µM relative to DMSO
T1 construct: purchased Carna Biosciences

RAF1_Cascade = target: T2, RAF1_Cascade (Homo sapiens, UniProt P04049); assay: Kinase panel, CaNDY 1 µM; assay type: biochemical; details: CaNDY 1 µM relative to DMSO
T2 construct: purchased Carna Biosciences

CaMK1α = target: T3, CaMK1α (Homo sapiens, UniProt Q14012); assay: Kinase panel, CaNDY 1 µM; assay type: biochemical; details: CaNDY 1 µM relative to DMSO
T3 construct: purchased Carna Biosciences
T3 sequence (Q14012 whole entry): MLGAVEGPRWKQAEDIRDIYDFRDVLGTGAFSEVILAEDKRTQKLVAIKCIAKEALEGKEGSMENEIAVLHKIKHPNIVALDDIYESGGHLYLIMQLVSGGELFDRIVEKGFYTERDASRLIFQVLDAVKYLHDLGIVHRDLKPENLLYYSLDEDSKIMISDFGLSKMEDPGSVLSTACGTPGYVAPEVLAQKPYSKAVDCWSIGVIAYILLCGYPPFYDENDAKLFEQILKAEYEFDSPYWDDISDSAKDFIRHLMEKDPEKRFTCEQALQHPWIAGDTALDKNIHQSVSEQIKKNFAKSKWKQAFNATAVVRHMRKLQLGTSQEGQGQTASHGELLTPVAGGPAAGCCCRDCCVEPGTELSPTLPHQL

EGFR(d746-750/T790M) = target: T4, EGFR(d746-750/T790M) (Homo sapiens, UniProt P00533, DEL746-750/T790M); assay: Kinase panel, CaNDY 1 µM; assay type: biochemical; details: CaNDY 1 µM relative to DMSO
T4 construct: purchased Carna Biosciences

PKACα = target: T5, PKACα (Homo sapiens, UniProt P17612); assay: Kinase panel, CaNDY 1 µM; assay type: biochemical; details: CaNDY 1 µM relative to DMSO
T5 construct: purchased Carna Biosciences

HER2 = target: T6, HER2 (Homo sapiens, UniProt P04626); assay: Kinase panel, CaNDY 1 µM; assay type: biochemical; details: CaNDY 1 µM relative to DMSO
T6 construct: purchased Carna Biosciences

MAPKAPK3 = target: T7, MAPKAPK3 (Homo sapiens, UniProt Q16644); assay: Kinase panel, CaNDY 1 µM; assay type: biochemical; details: CaNDY 1 µM relative to DMSO
T7 construct: purchased Carna Biosciences

PBK = target: T8, PBK (Homo sapiens, UniProt Q96KB5); assay: Kinase panel, CaNDY 1 µM; assay type: biochemical; details: CaNDY 1 µM relative to DMSO
T8 construct: purchased Carna Biosciences

CDC37-nanoKAZ = assay: Luminescence activity of CDC37-nanoKAZ in total cell lysates; assay type: cell-based; details: counter-test, same concentrations as interaction assay
Experimental: The luminescence activity of the cell lysates was determined using a Centro LB 960 Microplate Luminometer (Berthold Technologies, Bad Wildbad, Germany). A reaction mixture containing bis-coelenterazine (final concentration of 0.1–1 μg/100 μL) in PBS containing 0.02% Tween20 and 20 mM EDTA was injected. The luminescence intensity was recorded at 0.1 s intervals for 10 s or 10 min. The maximum luminescence intensity (Imax), represented in relative luminescence units (rlu), was used in the study.
(§1) Targeting the DYRK1A/CDC37 complex
(a-d) Luminescence intensities of total cell lysates of cells treated with the indicated […]
Figure 4. Luminescence intensities at each concentration are shown as fold-changes relative to that at 0 nM. Points are means ± SD (n = 3).
(§2) (1 picture or pasted object on this page, not shown here)
Luminescence intensities of total cell lysates of cells treated with the indicated concentrations of CaNDY, as also used in Figure 5c. Luminescence intensities at each concentration are shown as fold-changes to that at 0 nM. Points are means ± SD (n = 3).

PAK1 = target: T9, PAK1 (Homo sapiens, UniProt Q13153); assay: Kinase panel, CaNDY 1 µM; assay type: biochemical; details: CaNDY 1 µM relative to DMSO
T9 construct: purchased Carna Biosciences

TAOK2 = target: T10, TAOK2 (Homo sapiens, UniProt Q9UL54); assay: Kinase panel, CaNDY 1 µM; assay type: biochemical; details: CaNDY 1 µM relative to DMSO
T10 construct: purchased Carna Biosciences

LYNb = target: T11, LYNb (Homo sapiens, UniProt P07948); assay: Kinase panel, CaNDY 1 µM; assay type: biochemical; details: CaNDY 1 µM relative to DMSO
T11 construct: purchased Carna Biosciences

MAP2K7_Cascade = target: T12, MAP2K7_Cascade (Homo sapiens, UniProt O14733); assay: Kinase panel, CaNDY 1 µM; assay type: biochemical; details: CaNDY 1 µM relative to DMSO
T12 construct: purchased Carna Biosciences
T12 sequence (O14733 whole entry): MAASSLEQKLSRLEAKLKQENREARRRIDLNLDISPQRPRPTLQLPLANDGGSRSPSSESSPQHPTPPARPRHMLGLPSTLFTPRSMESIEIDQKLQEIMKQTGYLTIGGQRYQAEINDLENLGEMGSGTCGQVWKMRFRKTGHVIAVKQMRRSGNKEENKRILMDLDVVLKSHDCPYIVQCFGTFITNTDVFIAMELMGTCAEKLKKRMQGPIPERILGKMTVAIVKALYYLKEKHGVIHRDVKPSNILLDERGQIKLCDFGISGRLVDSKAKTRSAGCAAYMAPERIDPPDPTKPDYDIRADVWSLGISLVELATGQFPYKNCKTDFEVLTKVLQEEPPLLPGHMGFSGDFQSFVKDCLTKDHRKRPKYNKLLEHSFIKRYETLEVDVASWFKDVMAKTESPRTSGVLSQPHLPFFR

RET(S891A) = target: T13, RET(S891A) (Homo sapiens, UniProt P07949, S891A); assay: Kinase panel, CaNDY 1 µM; assay type: biochemical; details: CaNDY 1 µM relative to DMSO
T13 construct: purchased Carna Biosciences
T13 sequence (P07949 29-1114 S891A): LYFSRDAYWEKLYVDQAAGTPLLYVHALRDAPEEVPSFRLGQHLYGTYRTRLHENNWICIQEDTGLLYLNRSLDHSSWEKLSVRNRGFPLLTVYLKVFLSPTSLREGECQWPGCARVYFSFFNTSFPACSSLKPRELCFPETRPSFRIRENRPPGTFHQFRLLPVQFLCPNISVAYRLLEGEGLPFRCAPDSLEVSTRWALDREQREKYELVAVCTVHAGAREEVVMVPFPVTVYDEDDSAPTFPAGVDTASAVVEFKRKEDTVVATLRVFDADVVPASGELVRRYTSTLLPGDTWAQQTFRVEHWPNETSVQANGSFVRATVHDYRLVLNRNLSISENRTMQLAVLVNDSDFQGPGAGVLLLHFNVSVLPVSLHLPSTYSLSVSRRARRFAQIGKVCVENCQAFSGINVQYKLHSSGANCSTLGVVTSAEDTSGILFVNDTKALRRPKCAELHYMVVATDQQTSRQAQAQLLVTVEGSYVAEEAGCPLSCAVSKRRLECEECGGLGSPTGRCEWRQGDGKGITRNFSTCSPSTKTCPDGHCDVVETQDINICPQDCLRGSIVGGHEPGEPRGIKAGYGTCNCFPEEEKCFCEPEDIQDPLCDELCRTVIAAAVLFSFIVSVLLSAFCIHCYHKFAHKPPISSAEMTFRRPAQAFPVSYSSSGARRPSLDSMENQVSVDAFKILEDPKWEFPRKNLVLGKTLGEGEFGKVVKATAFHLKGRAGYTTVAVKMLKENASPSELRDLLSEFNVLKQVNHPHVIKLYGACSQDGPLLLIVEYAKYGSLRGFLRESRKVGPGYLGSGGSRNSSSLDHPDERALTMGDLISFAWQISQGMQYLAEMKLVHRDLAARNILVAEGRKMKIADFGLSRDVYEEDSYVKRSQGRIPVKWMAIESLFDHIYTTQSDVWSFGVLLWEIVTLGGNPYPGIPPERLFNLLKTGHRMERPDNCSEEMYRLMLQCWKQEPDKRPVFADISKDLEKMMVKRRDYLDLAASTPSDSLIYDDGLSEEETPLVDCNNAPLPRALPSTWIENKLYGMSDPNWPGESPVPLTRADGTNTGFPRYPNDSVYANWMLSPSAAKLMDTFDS

[1] = target: T14, pre-accumulated 3xFLAG-DYRK1A (Homo sapiens, UniProt Q13627); assay: Pre-accumulated DYRK1A after cycloheximide, Western blot in HEK293 cells; assay type: cell-based; details: cycloheximide 1 mg/mL pre-treatment, CaNDY 2 µM, 0-24 h
T14 construct: F2A peptide linking to EGFP (2A skipping releases EGFP; a 2A remnant may stay on DYRK1A) (C); expressed in transfected cells; host or cells: HEK293
Experimental: (§3) Western blot analysis was performed using the antibodies described above. In brief, total cell lysates were separated by SDS-PAGE (5–20% gels; ATTO, Tokyo, Japan) under reducing conditions and then transferred to a PVDF membrane (PALL, SP, Brazil). Antibody reactions were performed with Can Get Signal® Immunoreaction Enhancer Solution (Toyobo). Peroxidase activities on the membrane were visualized with ECL Western Blotting Detection Reagents (GE Healthcare) or ImmunoStar® LD (Wako Pure Chemical Industries, Osaka, Japan), and a ChemiDoc^TM MP Imaging System (Bio-Rad, Hercules, CA, USA).
as §1
HEK293 cells were transfected with an expression vector for 3xFLAG-DYRK1A. At 48 h after transfection, the cells were pre-treated with 1 mg/mL cycloheximide (CHX) to stop protein synthesis, and then treated with CaNDY (2 µM) for the indicated time (0-24 h). The total cell lysates were subjected to SDS-PAGE followed by Western blot analysis.
as §2

PKCβ1 = target: T15, PKCβ1 (Homo sapiens, UniProt P05771); assay: Kinase panel, CaNDY 1 µM; assay type: biochemical; details: CaNDY 1 µM relative to DMSO
T15 construct: purchased Carna Biosciences

CK2α = target: T16, CK2α (Homo sapiens, UniProt P68400); assay: Western blot of kinase expression in HEK293 cells; assay type: cell-based; details: CaNDY 2 μM, 4 days
T16 construct: endogenous in cells; host or cells: HEK293
T16 sequence (P68400 whole entry): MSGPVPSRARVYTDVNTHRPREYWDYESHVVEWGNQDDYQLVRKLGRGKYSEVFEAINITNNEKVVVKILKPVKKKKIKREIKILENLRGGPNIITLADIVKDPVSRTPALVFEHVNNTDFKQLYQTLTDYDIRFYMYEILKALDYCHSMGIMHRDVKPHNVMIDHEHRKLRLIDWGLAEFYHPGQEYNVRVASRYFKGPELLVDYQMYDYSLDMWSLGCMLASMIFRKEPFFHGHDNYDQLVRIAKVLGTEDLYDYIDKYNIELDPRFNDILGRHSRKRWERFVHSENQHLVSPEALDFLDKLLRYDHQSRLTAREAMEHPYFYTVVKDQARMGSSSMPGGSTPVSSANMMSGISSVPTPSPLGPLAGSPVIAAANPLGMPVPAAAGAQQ
Experimental: To check selectivity of CaNDY for other kinases, we first examined protein expression of several kinases in HEK293 cells treated with CaNDY (2 μM) for 4 days. […] Third, protein expression of these kinases targeted by CaNDY (DYRK1A, DYRK1B, CLK1, and Haspin) was reassessed by Western blot analysis as performed in Fig. 7b.
as §3

PLK2 = target: T17, PLK2 (Homo sapiens, UniProt Q9NYY3); assay: Kinase panel, CaNDY 1 µM; assay type: biochemical; details: CaNDY 1 µM relative to DMSO
T17 construct: purchased Carna Biosciences
T17 sequence (Q9NYY3 whole entry): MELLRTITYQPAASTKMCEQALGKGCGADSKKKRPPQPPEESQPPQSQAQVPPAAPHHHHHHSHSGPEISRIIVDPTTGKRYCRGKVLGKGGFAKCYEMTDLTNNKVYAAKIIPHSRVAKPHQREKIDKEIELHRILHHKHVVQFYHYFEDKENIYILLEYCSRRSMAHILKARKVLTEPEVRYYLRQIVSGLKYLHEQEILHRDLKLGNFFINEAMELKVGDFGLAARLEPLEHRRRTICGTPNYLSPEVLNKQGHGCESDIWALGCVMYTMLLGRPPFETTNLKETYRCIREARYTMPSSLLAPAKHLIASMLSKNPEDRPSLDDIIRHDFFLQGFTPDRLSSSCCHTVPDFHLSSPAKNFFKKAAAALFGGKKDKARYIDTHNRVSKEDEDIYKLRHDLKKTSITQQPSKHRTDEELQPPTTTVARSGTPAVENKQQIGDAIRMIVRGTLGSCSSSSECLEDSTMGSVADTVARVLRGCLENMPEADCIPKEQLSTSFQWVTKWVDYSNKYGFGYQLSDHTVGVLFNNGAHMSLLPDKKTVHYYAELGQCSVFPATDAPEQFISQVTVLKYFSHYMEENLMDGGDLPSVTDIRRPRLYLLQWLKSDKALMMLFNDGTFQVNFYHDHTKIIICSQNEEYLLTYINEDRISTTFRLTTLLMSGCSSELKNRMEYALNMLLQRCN

INSR = target: T18, INSR (Homo sapiens, UniProt P06213); assay: Kinase panel, CaNDY 1 µM; assay type: biochemical; details: CaNDY 1 µM relative to DMSO
T18 construct: purchased Carna Biosciences

GSK3α = target: T19, GSK3α (Homo sapiens, UniProt P49840); assay: Kinase panel, CaNDY 1 µM; assay type: biochemical; details: CaNDY 1 µM relative to DMSO
T19 construct: purchased Carna Biosciences
T19 sequence (P49840 whole entry): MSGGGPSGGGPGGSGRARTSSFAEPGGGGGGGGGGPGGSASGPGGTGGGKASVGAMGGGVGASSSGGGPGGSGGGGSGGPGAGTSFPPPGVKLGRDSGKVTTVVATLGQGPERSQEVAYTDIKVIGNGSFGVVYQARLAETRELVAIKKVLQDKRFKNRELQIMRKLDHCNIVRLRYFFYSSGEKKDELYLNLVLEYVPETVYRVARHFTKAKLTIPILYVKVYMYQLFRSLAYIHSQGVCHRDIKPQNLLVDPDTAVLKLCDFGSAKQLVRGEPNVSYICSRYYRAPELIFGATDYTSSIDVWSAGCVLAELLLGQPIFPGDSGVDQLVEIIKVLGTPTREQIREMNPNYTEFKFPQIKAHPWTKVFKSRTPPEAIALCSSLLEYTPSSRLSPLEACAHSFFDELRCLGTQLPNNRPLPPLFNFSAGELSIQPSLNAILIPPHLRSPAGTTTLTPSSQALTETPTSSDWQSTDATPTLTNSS

NDR2 = target: T20, NDR2 (Homo sapiens, UniProt Q9Y2H1); assay: Kinase panel, CaNDY 1 µM; assay type: biochemical; details: CaNDY 1 µM relative to DMSO
T20 construct: purchased Carna Biosciences
T20 sequence (Q9Y2H1 whole entry): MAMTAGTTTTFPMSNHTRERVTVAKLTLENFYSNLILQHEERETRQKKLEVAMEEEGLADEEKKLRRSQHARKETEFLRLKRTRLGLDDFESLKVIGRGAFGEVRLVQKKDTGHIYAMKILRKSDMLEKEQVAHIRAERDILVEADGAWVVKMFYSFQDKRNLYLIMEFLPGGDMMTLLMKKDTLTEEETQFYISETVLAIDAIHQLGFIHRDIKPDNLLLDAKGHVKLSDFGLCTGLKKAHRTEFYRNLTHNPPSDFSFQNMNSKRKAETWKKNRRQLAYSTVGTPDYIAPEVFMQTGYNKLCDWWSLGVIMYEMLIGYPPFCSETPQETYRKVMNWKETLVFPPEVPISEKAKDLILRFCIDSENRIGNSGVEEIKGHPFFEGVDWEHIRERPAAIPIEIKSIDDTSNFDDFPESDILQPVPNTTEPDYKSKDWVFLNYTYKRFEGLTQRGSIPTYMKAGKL

KIT(V560G) = target: T21, KIT(V560G) (Homo sapiens, UniProt P10721, V560G); assay: Kinase panel, CaNDY 1 µM; assay type: biochemical; details: CaNDY 1 µM relative to DMSO
T21 construct: purchased Carna Biosciences

CaMK2β = target: T22, CaMK2β (Homo sapiens, UniProt Q13554); assay: Kinase panel, CaNDY 1 µM; assay type: biochemical; details: CaNDY 1 µM relative to DMSO
T22 construct: purchased Carna Biosciences
T22 sequence (Q13554 whole entry): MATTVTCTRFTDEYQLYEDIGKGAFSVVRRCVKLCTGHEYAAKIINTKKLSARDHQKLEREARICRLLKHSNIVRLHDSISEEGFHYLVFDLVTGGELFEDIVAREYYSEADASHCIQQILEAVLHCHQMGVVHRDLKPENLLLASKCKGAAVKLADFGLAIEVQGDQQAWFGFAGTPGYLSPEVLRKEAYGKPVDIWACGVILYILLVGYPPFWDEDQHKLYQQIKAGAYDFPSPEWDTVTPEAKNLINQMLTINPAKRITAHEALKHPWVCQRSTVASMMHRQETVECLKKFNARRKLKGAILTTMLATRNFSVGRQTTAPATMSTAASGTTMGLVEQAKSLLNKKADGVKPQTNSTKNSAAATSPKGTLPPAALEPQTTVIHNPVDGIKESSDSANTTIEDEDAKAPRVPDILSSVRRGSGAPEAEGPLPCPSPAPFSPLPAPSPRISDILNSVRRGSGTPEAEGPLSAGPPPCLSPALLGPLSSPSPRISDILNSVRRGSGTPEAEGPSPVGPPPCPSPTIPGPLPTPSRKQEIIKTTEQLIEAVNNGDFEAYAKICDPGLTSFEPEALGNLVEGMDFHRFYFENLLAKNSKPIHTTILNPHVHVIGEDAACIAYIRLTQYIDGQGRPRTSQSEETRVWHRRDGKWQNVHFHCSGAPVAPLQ

MST1 = target: T23, MST1 (Homo sapiens, UniProt Q13043); assay: Kinase panel, CaNDY 1 µM; assay type: biochemical; details: CaNDY 1 µM relative to DMSO
T23 construct: purchased Carna Biosciences

PHKG1 = target: T24, PHKG1 (Homo sapiens, UniProt Q16816); assay: Kinase panel, CaNDY 1 µM; assay type: biochemical; details: CaNDY 1 µM relative to DMSO
T24 construct: purchased Carna Biosciences
T24 sequence (Q16816 whole entry): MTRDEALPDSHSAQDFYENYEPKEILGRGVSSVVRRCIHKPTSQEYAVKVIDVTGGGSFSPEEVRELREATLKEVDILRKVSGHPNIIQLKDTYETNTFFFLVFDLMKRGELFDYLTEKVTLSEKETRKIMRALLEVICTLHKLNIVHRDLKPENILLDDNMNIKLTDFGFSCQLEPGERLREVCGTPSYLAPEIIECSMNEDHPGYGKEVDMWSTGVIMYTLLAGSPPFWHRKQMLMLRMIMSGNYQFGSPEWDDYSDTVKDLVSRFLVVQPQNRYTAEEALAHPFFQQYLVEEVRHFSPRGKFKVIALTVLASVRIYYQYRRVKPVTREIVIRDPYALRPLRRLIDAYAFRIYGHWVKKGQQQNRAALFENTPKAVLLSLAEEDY

For `[H]/N=C1/NC(=O)C(=Cc2ccc3c(c2)CCO3)S1` [CaNDY, (Z)-5-[(2,3-dihydrobenzofuran-5-yl)methylene]-2-iminothiazolidin-4-one], the remaining activity at 1 µM (TNK1) was 99.7%, the remaining activity at 1 µM (RAF1_Cascade) was 82.3% and the remaining activity at 1 µM (CaMK1α) was 100%. The “%Activity” value (EGFR(d746-750/T790M)) was 101.0%, the remaining activity at 1 µM (PKACα) was 88.9% and the remaining activity at 1 µM (HER2) was 106%. The remaining activity at 1 µM (MAPKAPK3) was 103%, the remaining activity at 1 µM (PBK) was 98.4% and the “inhibition of luminescence activity of CDC37-nanoKAZ” value (CDC37-nanoKAZ) was “did not inhibit”. For the same compound, the remaining activity at 1 µM (PAK1) was 98.6%, the remaining activity at 1 µM (TAOK2) was 95.7% and the remaining activity at 1 µM (LYNb) was 98%. For the same compound, the “%Activity” value (MAP2K7_Cascade) was 101.7%, the remaining activity at 1 µM (RET(S891A)) was 103% and the “pre-accumulated DYRK1A level” value [1] was “did not decrease pre-accumulated DYRK1A”. The remaining activity at 1 µM (PKCβ1) was 83.8%, the “protein expression of CK2α” value (CK2α) was “did not decrease” and the “%Activity” value (PLK2) was 95.9%. For the same compound, the remaining activity at 1 µM (INSR) was 103%, the remaining activity at 1 µM (GSK3α) was 76.6% and the remaining activity at 1 µM (NDR2) was 91.9%. The remaining activity at 1 µM (KIT(V560G)) was 101%, the remaining activity at 1 µM (CaMK2β) was 98.2% and the “%Activity” value (MST1) was 101.2%. The remaining activity at 1 µM (PHKG1) was 92.1%.
